Reference: paper PMC5149398 (Journal of medicinal chemistry, 2016)

Tests used:
AKR1C3 [1] = target: T1, AKR1C3 (Homo sapiens, UniProt P42330); test: S-tetralol oxidation assay, AKR1C3; assay type: biochemical
T1 sequence (P42330 1-323): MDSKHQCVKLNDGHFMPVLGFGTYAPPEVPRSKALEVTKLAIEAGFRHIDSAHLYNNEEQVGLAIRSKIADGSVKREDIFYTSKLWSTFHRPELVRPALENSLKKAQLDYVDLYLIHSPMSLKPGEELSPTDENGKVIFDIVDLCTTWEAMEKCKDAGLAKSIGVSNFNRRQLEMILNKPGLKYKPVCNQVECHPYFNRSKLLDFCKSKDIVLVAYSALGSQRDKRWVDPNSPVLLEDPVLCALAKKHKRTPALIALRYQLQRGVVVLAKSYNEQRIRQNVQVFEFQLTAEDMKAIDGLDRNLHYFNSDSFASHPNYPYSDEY

AKR1C3 [2] = target: T1, AKR1C3; test: AKR1C3 catalyzed NADPH dependent reduction of [3H]-Δ4-AD; assay type: biochemical
AKR1C3 [3] = target: T1, AKR1C3; test: Radiometric assay of androgen metabolism; assay type: cell-based; settings: LNCaP-AKR1C3 cells, 100 nM Δ4-AD, 30 µM compound, 48 h
[4] = system: PSA expression in LNCaP-AKR1C3 cells; test: Δ4-AD induced PSA expression in LNCaP-AKR1C3 cells; assay type: cell-based; settings: 100 nM Δ4-AD, 30 µM compound, 24 h
AKR1C2 = target: T2, AKR1C2 (Homo sapiens, UniProt P52895); settings: 5α-DHT reduction, <100 µM concentrations
T2 sequence (P52895 1-323): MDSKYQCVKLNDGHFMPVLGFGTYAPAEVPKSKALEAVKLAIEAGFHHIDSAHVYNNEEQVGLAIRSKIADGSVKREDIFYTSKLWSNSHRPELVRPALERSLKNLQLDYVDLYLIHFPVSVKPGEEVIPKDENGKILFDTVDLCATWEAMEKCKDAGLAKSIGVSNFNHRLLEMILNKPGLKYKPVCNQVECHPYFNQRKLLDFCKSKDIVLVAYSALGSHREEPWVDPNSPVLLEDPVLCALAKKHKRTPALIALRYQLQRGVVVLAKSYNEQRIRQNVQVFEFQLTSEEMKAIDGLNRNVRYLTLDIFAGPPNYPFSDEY

COX-2 = settings: no COX-2 method in this paper, ref Duggan et al.[42], cited from earlier work

CSc1ccc2cc(C(C)C(=O)O)ccc2c1 (racemic) [(±)-9, 2-(6-(Methylthio)naphthalen-2-yl)propanoic Acid]
increase in the inhibitory potency for AKR1C3 over that seen with naproxen (AKR1C3 [1]; S-tetralol oxidation): 3 fold

CC(C(=O)O)c1ccc2cc([S+](C)[O-])ccc2c1 (racemic) [(±)-10, 2-(6-(Methylsulfinyl)naphthalen-2-yl)propanoic Acid]
loss of inhibitory potency on AKR1C3 compared to 9 (AKR1C3 [1]; S-tetralol oxidation): greater than 15 fold

CC(C(=O)O)c1ccc2cc(S(C)(=O)=O)ccc2c1 (racemic) [(±)-11, 2-(6-(Methylsulfonyl)naphthalen-2-yl)propanoic Acid]
loss of inhibitory potency on AKR1C3 compared to 9 (AKR1C3 [1]; S-tetralol oxidation): greater than 15 fold

CC[C@@H](C(=O)O)c1ccc2cc(OC)ccc2c1 [(R)-14a, (R)-2-(6-methoxynaphthalen-2-yl)butanoic acid]
mode of AKR1C3 inhibition (AKR1C3 [1]; oxidation of S-tetralol): competitively inhibited | mode of AKR1C3 inhibition (AKR1C3 [2]): same mode of inhibition | production of [3H]-testosterone glucuronide (AKR1C3 [3]): significantly inhibited | Δ4-AD induced increase in PSA expression [4]: reduced | inhibition of AKR1C2 (AKR1C2): did not display any significant inhibition | COX-2 IC50 (µM) (COX-2): no inhibition ^a

CC[C@H](C(=O)O)c1ccc2cc(OC)ccc2c1 [(S)-14b]
COX-2 IC50 (µM) (COX-2): no inhibition ^a

COc1ccc2cc([C@@H](C)C(=O)O)ccc2c1 [R-naproxen (1a), reference compound]
IC50 (COX-2; read-out: COX-2 IC50): > 25 µM
